Measurements published in paper PMC2815200 (Biochemical pharmacology, 2009).

Experiments:
human A3AR = target: T1, human A3AR (Homo sapiens, UniProt P0DMS8); type: binding; conditions: [^125I]MRS5127 0.2 nM, 2 h room temperature, Cheng-Prusoff
T1 sequence (P0DMS8 1-318): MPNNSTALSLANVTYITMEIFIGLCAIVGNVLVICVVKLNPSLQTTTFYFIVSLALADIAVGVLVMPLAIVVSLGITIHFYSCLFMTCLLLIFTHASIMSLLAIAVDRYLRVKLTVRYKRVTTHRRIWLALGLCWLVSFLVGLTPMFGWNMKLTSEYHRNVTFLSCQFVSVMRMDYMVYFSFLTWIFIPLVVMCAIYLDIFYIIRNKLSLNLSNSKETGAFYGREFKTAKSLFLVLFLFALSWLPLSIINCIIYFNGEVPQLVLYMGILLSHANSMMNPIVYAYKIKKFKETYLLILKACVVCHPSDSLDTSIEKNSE

mouse A3AR = target: T2, mouse A3AR (Mus musculus, UniProt Q61618); assay: cAMP accumulation assay, HEK 293 cells expressing mouse A3AR; type: cell-based; conditions: forskolin 10 μM, 15 min, Ro 20-1724 20 μM
T2 sequence (Q61618 1-319): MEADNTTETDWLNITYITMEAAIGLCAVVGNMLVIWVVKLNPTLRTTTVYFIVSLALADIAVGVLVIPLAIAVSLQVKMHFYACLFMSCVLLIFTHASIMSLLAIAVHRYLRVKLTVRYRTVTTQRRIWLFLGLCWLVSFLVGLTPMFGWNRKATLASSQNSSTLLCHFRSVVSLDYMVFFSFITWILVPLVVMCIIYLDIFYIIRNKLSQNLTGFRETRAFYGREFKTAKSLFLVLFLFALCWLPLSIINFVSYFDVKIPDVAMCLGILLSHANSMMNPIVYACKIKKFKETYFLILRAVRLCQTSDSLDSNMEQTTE

rabbit A3AR = target: T3, rabbit A3AR (Oryctolagus cuniculus, UniProt O02667); assay: cAMP accumulation assay, HEK 293 cells expressing rabbit A3AR; type: cell-based; conditions: forskolin 10 μM, 15 min, Ro 20-1724 20 μM
T3 sequence (O02667 1-319): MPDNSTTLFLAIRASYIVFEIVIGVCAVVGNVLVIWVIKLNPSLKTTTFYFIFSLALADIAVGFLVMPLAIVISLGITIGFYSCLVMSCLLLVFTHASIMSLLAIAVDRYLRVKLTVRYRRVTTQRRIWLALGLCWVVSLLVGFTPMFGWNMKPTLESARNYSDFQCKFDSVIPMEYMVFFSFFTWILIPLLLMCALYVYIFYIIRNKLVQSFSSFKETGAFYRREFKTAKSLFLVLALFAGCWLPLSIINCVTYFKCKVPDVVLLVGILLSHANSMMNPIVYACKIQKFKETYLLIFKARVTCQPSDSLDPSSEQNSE

dog A3AR = target: T4, dog A3AR (Canis lupus familiaris, UniProt Q28309); assay: cAMP accumulation assay, HEK 293 cells expressing dog A3AR; type: cell-based; conditions: forskolin 10 μM, 15 min, Ro 20-1724 20 μM
T4 sequence (Q28309 1-314): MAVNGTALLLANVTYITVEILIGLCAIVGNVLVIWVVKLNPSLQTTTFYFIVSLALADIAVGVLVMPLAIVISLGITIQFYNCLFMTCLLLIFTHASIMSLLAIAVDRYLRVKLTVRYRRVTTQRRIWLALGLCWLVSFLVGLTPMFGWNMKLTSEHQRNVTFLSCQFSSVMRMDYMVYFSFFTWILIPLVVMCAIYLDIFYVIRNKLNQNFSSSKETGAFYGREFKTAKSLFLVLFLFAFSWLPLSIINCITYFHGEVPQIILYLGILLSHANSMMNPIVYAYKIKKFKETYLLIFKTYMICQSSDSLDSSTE

hA3AR [1] = conditions: cited from earlier work
hA3 = conditions: read-out: affinity; hA3 ref 25, 26; cited from earlier work
hA3AR [2] = conditions: CHO cell membranes expressing hA3AR ref 25; cited from earlier work
mouse A2BAR = target: T5, mouse A2BAR (Mus musculus, UniProt Q60614); assay: Competition binding of MRS5127 at mouse A2BAR; conditions: [^3H]MRS1754 2 nM, HEK 293 membranes
T5 sequence (Q60614 1-332): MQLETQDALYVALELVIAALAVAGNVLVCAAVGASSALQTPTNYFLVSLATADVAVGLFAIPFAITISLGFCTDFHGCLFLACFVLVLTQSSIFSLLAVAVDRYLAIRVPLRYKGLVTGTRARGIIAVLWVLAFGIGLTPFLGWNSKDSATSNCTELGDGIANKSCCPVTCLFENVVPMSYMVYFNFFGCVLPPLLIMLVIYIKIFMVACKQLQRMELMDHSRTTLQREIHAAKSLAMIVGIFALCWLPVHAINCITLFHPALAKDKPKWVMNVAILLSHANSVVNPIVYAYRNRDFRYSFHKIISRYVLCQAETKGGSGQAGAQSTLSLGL

mouse A2AAR = mouse A2AAR (Mus musculus, UniProt Q60613); assay: Competition binding of MRS5127 at mouse A2AAR; conditions: [^3H]CGS21680 10 nM, HEK 293 membranes
Chain of mouse A2AAR (Q60613 whole entry): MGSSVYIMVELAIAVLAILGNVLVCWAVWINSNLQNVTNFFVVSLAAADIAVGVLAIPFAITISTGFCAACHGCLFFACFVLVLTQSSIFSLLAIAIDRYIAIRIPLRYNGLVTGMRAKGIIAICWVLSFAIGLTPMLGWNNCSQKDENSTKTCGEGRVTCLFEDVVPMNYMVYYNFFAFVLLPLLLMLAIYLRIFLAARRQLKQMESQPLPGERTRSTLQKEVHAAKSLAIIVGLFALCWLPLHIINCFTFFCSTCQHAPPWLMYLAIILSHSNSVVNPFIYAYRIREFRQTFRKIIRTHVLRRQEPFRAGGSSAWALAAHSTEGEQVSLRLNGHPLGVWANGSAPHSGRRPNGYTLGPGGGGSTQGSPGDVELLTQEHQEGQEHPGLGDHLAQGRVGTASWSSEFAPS

mA1AR = target: T6, mA1AR (Mus musculus, UniProt Q60612); assay: Competition binding of MRS5127 at mouse A1AR
T6 sequence (Q60612 1-326): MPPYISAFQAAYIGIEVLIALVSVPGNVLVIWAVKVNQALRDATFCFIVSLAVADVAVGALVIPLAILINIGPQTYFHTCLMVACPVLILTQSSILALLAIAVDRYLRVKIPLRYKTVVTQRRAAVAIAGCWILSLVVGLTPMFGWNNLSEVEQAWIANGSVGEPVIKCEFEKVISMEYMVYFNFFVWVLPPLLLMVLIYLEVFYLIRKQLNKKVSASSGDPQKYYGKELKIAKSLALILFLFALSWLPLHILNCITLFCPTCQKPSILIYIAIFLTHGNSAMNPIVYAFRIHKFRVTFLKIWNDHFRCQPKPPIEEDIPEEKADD

Row | Structure (SMILES) | Ki (human A3AR) | EC50 (mouse A3AR) | EC50 (rabbit A3AR) | EC50 (dog A3AR) | efficacy in comparison to NECA (hA3AR [1]; cAMP accumulation, human receptors ref 26) | efficacy compared to the full agonist NECA (hA3AR [1]; cAMP, transfected cells ref 26) | Ki (hA3) | functional character by Schild analysis of [^35S]GTPγS binding (hA3AR [2]) | binding to mouse A2BAR (mouse A2BAR) | binding to mouse A2AAR (mouse A2AAR) | affinity for mA1AR lower compared to the mA3AR (mA1AR; mA1AR versus mA3AR) | Ki (mA1AR; read-out: affinity (Ki value), [^125I]I-AB-MECA 0.3 nM, HEK 293 membranes)
1 | CCCOC(=O)c1c(-c2ccccc2)nc(CC)c(C(=O)SCC)c1CCC [MRS1523, 5-propyl-2-ethyl-4-propyl-3-(ethylsulfanylcarbonyl)-6-phenylpyridine-5-carboxylate] | 246 ± 66 nM |  |  |  |  |  |  |  |  |  |  | 
2 | O[C@@H]1[C@H](O)[C@@H]2C[C@@H]2[C@H]1n1cnc2c(NCc3cccc(I)c3)nc(Cl)nc21 [MRS5127, (1′R,2′R,3′S,4′R,5′S)-4′-[2-chloro-6-(3-iodobenzylamino)-purine]-2′,3′-O-dihydroxybicyclo-[3.1.0]hexane] |  | 1.34 ± 0.07 nM | 1.53 ± 0.59 nM | 2.79 ± 0.41 nM | roughly half efficacy | 45% | 1.44 ± 0.6 nM | antagonist | did not bind | did not bind | ~ 30 fold | 140 ± 26 nM
